Assay results: publication PMC12738788, “Structural snapshots of Pseudomonas aeruginosa LptB2FG and LptB2FGC reveal insights into lipopolysaccharide recognition and transport” (Nature Communications, 2025)
Several values for one entry are separate records, joined by “and”; a condition that tells them apart may be missing. Equal entries are not always repeated. Each block holds one compound with its values, some of them ahead of it.

How the values were obtained:
[1] = tested on: P. aeruginosa LptB2FGC; assay: Native MS lipid binding to LptB2FGC; parameters: species or system Pseudomonas aeruginosa; conditions: for 1x lipid_Ratio / 2x lipid_Ratio / 3x lipid_Ratio / 4x lipid_Ratio / Apo_Ratio: 3 μM protein
Protocol: (§1) Purified LptB2FG(C) was buffer exchanged into MS Buffer (200 mM ammonium acetate + 0.04% (w/v) [G1]-OGD) using a centrifugal buffer exchange device (Micro Bio-Spin 6, Bio-Rad) as previously described. The freshly buffer-exchanged protein was kept on ice, with protein concentration measured as before. The protein samples were diluted as desired in 200 mM ammonium acetate buffer with detergent as necessary and loaded into a gold-coated capillary Clark borosilicate capillary (Harvard Apparatus) prepared in the laboratory. The experiments were performed using a Q Exactive UHMR Hybrid Quadrupole-Orbitrap mass spectrometer (Thermo Fisher Scientific). Typically, 2 μl of buffer-exchanged protein solution was electrosprayed in negative polarity from in-house prepared gold-coated borosilicate capillaries. The instrument parameters used for data collection were: capillary voltage 1.1 kV, S-lens RF 100%, quadrupole selection from 1000 to 20,000 m/z range, HCD collision energy 200–300 V, source fragmentation 0 V, in-source trapping 200–300 V in negative mode. The ion transfer optics was set as follows: injection flatapole − 5 V, inter-flatapole lens − 4 V, bent flatapole − 2 V, transfer multipole 0 V. The resolution of the instrument was 8750 at m/z = 200 (transient time of 64 ms), argon pressure in the HCD cell was maintained at approximately at 8 × 10^–10 mbar and source temperature was kept at 200 °C. The noise level was set at 3 rather than the default value of 4.64. Calibration of the instruments was performed using 10 mg/ml solution of caesium iodide in water. Where required, baseline subtraction was performed to achieve a better-quality mass spectrum. Data were analysed using the Xcalibur 3.0 (Thermo Scientific), NaViA[64], and UniDec (www.unidec.chem.ox.ac.uk)[65] software packages.
(§2) Lipid and nucleotide binding experiments were performed by diluting them in 200 mM ammonium acetate supplemented with 0.04% [G1]-OGD. Native MS experiments were performed at a total LptB2FG(C) protein concentration of 3 μM.
(§3) Peak intensities were extracted using UniDec, and the ratios of the intensity of the ligand bound peak versus the total intensity of all observed species were calculated. The apparent dissociation constant (KD) values for individual lipid-binding events to LptB2FG and LptB2FGC were calculated through a sequential lipid-binding model using a previously described Python script. When necessary, a Welch’s T-test was used to evaluate statistically significant differences and data were plotted using GraphPad Prism 8.0. Error bars in the plots indicate standard deviation, and all experiments were performed in triplicate (n = 3).

[2] = tested on: P. aeruginosa LptB2FG; assay: Native MS lipid binding to LptB2FG; parameters: species or system Pseudomonas aeruginosa; conditions: for 1x lipid_Ratio / 2x lipid_Ratio / 3x lipid_Ratio / 4x lipid_Ratio / Apo_Ratio: 3 μM protein
Protocol: as §1, §2, §3

[3] = tested on: P. aeruginosa LptB2FGC; assay: Native MS: CDL added to LptB2FG(C):Re-LPS complex (competition); type: binding, Pseudomonas aeruginosa; conditions: Re-LPS 1 uM + CDL 2.5 uM
Protocol: In particular, we chose 14:0 CDL to be consistent with the 14 carbon lipid tails of Re-LPS, and incubated this with the LptB2FG/LptB2FGC complex, we could observe ~ 50% of LptB2FGC bound to CDL at 2.5 μM concentration (Fig. 5b). Apparent KD calculation indicated a similar trend when comparing LptB2FG and LptB2FGC interaction with CDL to that of LPS (Supplementary Fig. S18). […] We set out to test whether CDL influences LPS binding to LptB2FGC. To this end, we added increasing concentrations of CDL (1.0 to 5 μM) to a solution containing LptB2FG(C):Re-LPS complex (Supplementary Fig. S19).
Purified LptB2FG(C) was buffer exchanged into MS Buffer (200 mM ammonium acetate + 0.04% (w/v) [G1]-OGD) using a centrifugal buffer exchange device (Micro Bio-Spin 6, Bio-Rad) as previously described. The freshly buffer-exchanged protein was kept on ice, with protein concentration measured as before. […] Data were analysed using the Xcalibur 3.0 (Thermo Scientific), NaViA[64], and UniDec (www.unidec.chem.ox.ac.uk)[65] software packages. […]
Peak intensities were extracted using UniDec, and the ratios of the intensity of the ligand bound peak versus the total intensity of all observed species were calculated. The apparent dissociation constant (KD) values for individual lipid-binding events to LptB2FG and LptB2FGC were calculated through a sequential lipid-binding model using a previously described Python script. […]

[4] = molecular target: P. aeruginosa LptB with a C-terminal 6 x His-tag (P. aeruginosa); assay: native MS; complex co-expressed and purified by the His tag on LptB (IMAC, SEC), exchanged into 200 mM ammonium acetate + 0.04% (w/v) [G1]-OGD; negative polarity
[5] = molecular target: P. aeruginosa LptB with a C-terminal 6 x His-tag (P. aeruginosa); assay: non-reducing SDS-PAGE; SDS-PAGE gel of the purified complex, run under non-reducing conditions
[6] = molecular target: P. aeruginosa LptB with a C-terminal 6 x His-tag (P. aeruginosa); assay: cryo-EM structure; LptB2FG/LptB2FGC co-expressed, co-purified and delipidated, reconstituted in MSP1D1 nanodiscs with E. coli total extract lipid; 20 mM Tris-HCl pH 7.5, 100 mM NaCl; substrate-free; three LptB2FG and two LptB2FGC conformations from one sample
[7] = first lipid-binding event, sequential lipid-binding model, native MS, read-out: apparent dissociation constant KD(1)

Compound: CCCCCCCCCCCCCC(=O)OC[C@H](COP(=O)(O)OCC(O)COP(=O)(O)OC[C@@H](COC(=O)CCCCCCCCCCCCC)OC(=O)CCCCCCCCCCCCC)OC(=O)CCCCCCCCCCCCC (stereo partly shown) [CDL, 1’,3’-bis[1,2-dimyristoyl-sn-glycero-3-phospho]-glycerol]
1x lipid_Ratio ([1]; 0.25 μM lipid): 0.1955 and 0.2067 and 0.2427 | 2x lipid_Ratio ([1]; 0.25 μM lipid): 0 | 3x lipid_Ratio ([1]; 0.25 μM lipid): 0 | 4x lipid_Ratio ([1]; 0.25 μM lipid): 0 | Apo_Ratio ([1]; 0.25 μM lipid): 0.8045 and 0.7933 and 0.7573 | 1x lipid_Ratio ([1]; 0.5 μM lipid): 0.236 and 0.2635 and 0.2763 | 2x lipid_Ratio ([1]; 0.5 μM lipid): 0 | 3x lipid_Ratio ([1]; 0.5 μM lipid): 0 | 4x lipid_Ratio ([1]; 0.5 μM lipid): 0 | Apo_Ratio ([1]; 0.5 μM lipid): 0.764 and 0.7365 and 0.7237 | 1x lipid_Ratio ([1]; 1 μM lipid): 0.2764 and 0.2872 and 0.3074 | 2x lipid_Ratio ([1]; 1 μM lipid): 0.0846 and 0.07455 and 0.1186 | 3x lipid_Ratio ([1]; 1 μM lipid): 0 | 4x lipid_Ratio ([1]; 1 μM lipid): 0 | Apo_Ratio ([1]; 1 μM lipid): 0.639 and 0.6382 and 0.574 | 1x lipid_Ratio ([1]; 1.25 μM lipid): 0.3498 and 0.3261 and 0.3766 | 3x lipid_Ratio ([1]; 1.25 μM lipid): 0 | 4x lipid_Ratio ([1]; 1.25 μM lipid): 0 | Apo_Ratio ([1]; 1.25 μM lipid): 0.545 and 0.5422 and 0.5586 | 1x lipid_Ratio ([1]; 2.5 μM lipid): 0.3774 and 0.3613 and 0.3792 | 2x lipid_Ratio ([1]; 2.5 μM lipid): 0.1928 and 0.1837 and 0.1898 | 3x lipid_Ratio ([1]; 2.5 μM lipid): 0.07276 and 0.06329 and 0.08767 | 4x lipid_Ratio ([1]; 2.5 μM lipid): 0 | Apo_Ratio ([1]; 2.5 μM lipid): 0.3571 and 0.3916 and 0.3434 | 1x lipid_Ratio ([1]; 5 μM lipid): 0.2708 and 0.2286 and 0.261 | 2x lipid_Ratio ([1]; 5 μM lipid): 0.3089 and 0.3049 and 0.3123 | 3x lipid_Ratio ([1]; 5 μM lipid): 0.1993 and 0.2344 and 0.2124 | 4x lipid_Ratio ([1]; 5 μM lipid): 0.08447 and 0.1259 and 0.09283 | Apo_Ratio ([1]; 5 μM lipid): 0.1365 and 0.1062 and 0.1214 | Kd [1, 7]: 3.07 ± 0.09 µM | 1x lipid_Ratio ([2]; 0.25 μM lipid): 0.1443 and 0.1705 and 0.1602 | 2x lipid_Ratio ([2]; 0.25 μM lipid): 0 | 3x lipid_Ratio ([2]; 0.25 μM lipid): 0 | 4x lipid_Ratio ([2]; 0.25 μM lipid): 0 | Apo_Ratio ([2]; 0.25 μM lipid): 0.8557 and 0.8295 and 0.8398 | 1x lipid_Ratio ([2]; 0.5 μM lipid): 0.199 and 0.1911 and 0.2318 | 2x lipid_Ratio ([2]; 0.5 μM lipid): 0 | 3x lipid_Ratio ([2]; 0.5 μM lipid): 0 | 4x lipid_Ratio ([2]; 0.5 μM lipid): 0 | Apo_Ratio ([2]; 0.5 μM lipid): 0.801 and 0.8089 and 0.7682 | 1x lipid_Ratio ([2]; 1 μM lipid): 0.2261 and 0.2185 and 0.1754 | 3x lipid_Ratio ([2]; 1 μM lipid): 0 | 4x lipid_Ratio ([2]; 1 μM lipid): 0 | Apo_Ratio ([2]; 1 μM lipid): 0.7468 and 0.7118 and 0.7769 | 1x lipid_Ratio ([2]; 1.25 μM lipid): 0.2786 and 0.2616 and 0.2584 | 2x lipid_Ratio ([2]; 1.25 μM lipid): 0.04833 and 0.04258 and 0.08199 | 3x lipid_Ratio ([2]; 1.25 μM lipid): 0 | 4x lipid_Ratio ([2]; 1.25 μM lipid): 0 | Apo_Ratio ([2]; 1.25 μM lipid): 0.6731 and 0.6958 and 0.6596 | 1x lipid_Ratio ([2]; 2.5 μM lipid): 0.3458 and 0.3529 and 0.3561 | 2x lipid_Ratio ([2]; 2.5 μM lipid): 0.07878 and 0.07812 and 0.08017 | 3x lipid_Ratio ([2]; 2.5 μM lipid): 0 | 4x lipid_Ratio ([2]; 2.5 μM lipid): 0 | Apo_Ratio ([2]; 2.5 μM lipid): 0.5754 and 0.569 and 0.5638 | 1x lipid_Ratio ([2]; 5 μM lipid): 0.4041 and 0.3985 and 0.4061 | 2x lipid_Ratio ([2]; 5 μM lipid): 0.2783 and 0.2976 and 0.263 | 3x lipid_Ratio ([2]; 5 μM lipid): 0.07217 and 0.104 and 0.096 | 4x lipid_Ratio ([2]; 5 μM lipid): 0 | Apo_Ratio ([2]; 5 μM lipid): 0.2455 and 0.1999 and 0.2349 | Kd [2, 7]: 4.8 ± 0.14 µM | 1x CDL [3]: 0.1327 and 0.2003 and 0.1609 | 2x CDL [3]: 0

Compound: CCCCCCCCCCC[C@@H](O)CC(=O)N[C@H]1[C@H](OC[C@H]2O[C@H](OP(=O)(O)O)[C@H](NC(=O)C[C@H](O)CCCCCCCCCCC)[C@@H](OC(=O)C[C@H](O)CCCCCCCCCCC)[C@@H]2O)O[C@H](CO)[C@@H](OP(=O)(O)O)[C@@H]1OC(=O)C[C@H](O)CCCCCCCCCCC [lipid IVA]
lipid IVA occupancy of LptB2FGC ([1]; pre-delipidation, ClearColi-expressed complex, with 2× adducts): ~ 80% | apo fraction of LptB2FG ([2]; pre-delipidation, ClearColi-expressed complex, lipid IVA sole LPS-related species): ~ 60%

stoichiometry N [4]: 2 | stoichiometry N [5]: 2 | stoichiometry N [6]: 2
Compound: P. aeruginosa LptB with a C-terminal 6 x His-tag (natural protein)
